Data on two compounds can be found in ChEMBL document CHEMBL4507269, “Data for DCP probe BAY-386” (2021).

Test [1] deals with Sodium-dependent dopamine transporter (Homo sapiens) (UniProt Q01959). The settings on record: Compound concentration 10.0 uM.
Test [2] deals with Cannabinoid receptor 1 (Homo sapiens) (UniProt P21554). The settings on record: Compound concentration 10.0 uM.
The target in test [3] is Cysteinyl leukotriene receptor 1 (Homo sapiens) (UniProt Q9Y271). As to the kind of experiment: Inhibition of Leukotriene, Cysteinyl CysLT1 at 10 µM in the Eurofins-Panlabs radioligand binding assay (Eurofins_assay_250460). On the set-up: ligand concentration 0.3 nM, non-specific ligand with concentration 0.3 µM Leukotriene D4, incubation time 30 min, incubation temperature 25 °C. The note with it: Compound concentration 10.0 uM.
Chain of Cysteinyl leukotriene receptor 1 (Homo sapiens) (Q9Y271 whole entry): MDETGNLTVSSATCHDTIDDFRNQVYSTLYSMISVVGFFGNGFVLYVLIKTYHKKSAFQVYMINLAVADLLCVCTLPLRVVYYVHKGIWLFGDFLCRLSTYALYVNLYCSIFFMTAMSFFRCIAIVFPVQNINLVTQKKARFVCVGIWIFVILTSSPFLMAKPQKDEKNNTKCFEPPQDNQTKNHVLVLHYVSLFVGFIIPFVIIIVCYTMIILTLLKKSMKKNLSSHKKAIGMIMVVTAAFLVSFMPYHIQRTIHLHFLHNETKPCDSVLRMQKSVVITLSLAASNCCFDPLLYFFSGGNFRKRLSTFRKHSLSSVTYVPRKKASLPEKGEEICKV

The target in test [4] is Endothelin receptor type B (Homo sapiens) (UniProt P24530). The note with it: Compound concentration 10.0 uM.
Chain of Endothelin receptor type B (Homo sapiens) (P24530 whole entry): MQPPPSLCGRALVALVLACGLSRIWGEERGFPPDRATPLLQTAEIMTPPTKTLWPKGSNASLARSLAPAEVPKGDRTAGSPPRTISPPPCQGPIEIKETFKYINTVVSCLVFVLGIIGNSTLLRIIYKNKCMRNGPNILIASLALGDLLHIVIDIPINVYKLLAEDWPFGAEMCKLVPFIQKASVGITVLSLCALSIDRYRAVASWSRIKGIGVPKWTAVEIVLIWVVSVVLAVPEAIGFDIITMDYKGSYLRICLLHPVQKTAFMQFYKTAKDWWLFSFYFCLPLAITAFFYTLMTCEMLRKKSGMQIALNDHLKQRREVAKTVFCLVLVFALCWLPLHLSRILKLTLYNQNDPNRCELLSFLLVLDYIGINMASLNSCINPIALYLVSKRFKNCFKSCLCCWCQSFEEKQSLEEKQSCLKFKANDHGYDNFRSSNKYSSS
Test [5] has as its target Beta-2 adrenergic receptor (Homo sapiens) (UniProt P07550). The note with it: Compound concentration 10.0 uM.
The target in test [6] is T1, Muscarinic acetylcholine receptor M2 (Homo sapiens) (UniProt P08172).
T1 sequence (whole entry): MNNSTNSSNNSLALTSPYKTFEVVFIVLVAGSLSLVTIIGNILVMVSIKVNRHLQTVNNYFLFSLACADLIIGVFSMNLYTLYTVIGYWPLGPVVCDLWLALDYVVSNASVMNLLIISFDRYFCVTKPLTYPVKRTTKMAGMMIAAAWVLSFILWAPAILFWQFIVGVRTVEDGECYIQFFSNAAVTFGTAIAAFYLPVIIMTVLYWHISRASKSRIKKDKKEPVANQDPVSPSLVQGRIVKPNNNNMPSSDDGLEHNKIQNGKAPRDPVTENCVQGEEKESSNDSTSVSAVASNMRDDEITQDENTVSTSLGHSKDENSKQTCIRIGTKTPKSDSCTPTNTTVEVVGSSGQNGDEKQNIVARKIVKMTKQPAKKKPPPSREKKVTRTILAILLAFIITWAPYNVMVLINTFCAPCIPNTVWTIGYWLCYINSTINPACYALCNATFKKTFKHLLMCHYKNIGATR
The settings on record: Compound concentration 10.0 uM.

For test [7], the target named is Adenosine receptor A1 (Homo sapiens) (UniProt P30542). The settings on record: Compound concentration 10.0 uM.
Chain of Adenosine receptor A1 (Homo sapiens) (P30542 whole entry): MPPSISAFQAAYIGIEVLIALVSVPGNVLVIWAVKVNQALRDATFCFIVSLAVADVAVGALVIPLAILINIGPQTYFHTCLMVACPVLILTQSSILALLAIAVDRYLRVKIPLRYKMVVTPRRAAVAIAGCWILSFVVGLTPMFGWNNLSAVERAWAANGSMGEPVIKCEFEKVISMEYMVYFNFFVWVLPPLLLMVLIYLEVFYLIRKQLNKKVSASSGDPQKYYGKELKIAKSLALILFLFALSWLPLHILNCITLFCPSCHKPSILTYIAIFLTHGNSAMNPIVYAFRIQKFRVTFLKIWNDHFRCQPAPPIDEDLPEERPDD
The target in test [8] is Mu-type opioid receptor (Homo sapiens) (UniProt P35372). As to the kind of experiment: my(MOP) (h) Eurofins-Cerep Cellular and Nuclear Receptor Functional Assays. The note with it: Compound concentration 10.0 uM.
Chain of Mu-type opioid receptor (Homo sapiens) (P35372 whole entry): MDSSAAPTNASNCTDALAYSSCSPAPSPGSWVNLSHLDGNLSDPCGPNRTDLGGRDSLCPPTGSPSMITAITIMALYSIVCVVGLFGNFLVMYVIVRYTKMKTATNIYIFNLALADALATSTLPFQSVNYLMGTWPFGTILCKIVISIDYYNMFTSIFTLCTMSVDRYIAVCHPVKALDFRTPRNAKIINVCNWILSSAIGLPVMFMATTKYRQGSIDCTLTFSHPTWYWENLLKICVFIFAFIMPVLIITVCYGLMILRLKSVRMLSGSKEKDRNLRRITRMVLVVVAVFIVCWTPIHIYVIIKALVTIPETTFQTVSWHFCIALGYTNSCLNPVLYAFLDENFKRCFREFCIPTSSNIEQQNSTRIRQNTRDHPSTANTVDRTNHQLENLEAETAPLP
In test [9] the target is ATP-sensitive inward rectifier potassium channel 11 (Cricetulus griseus) (UniProt A0A3L7HHE1). As to the kind of experiment: Inhibition of Potassium Channel [KATP] at 10 µM in the Eurofins-Panlabs radioligand binding assay (Eurofins_assay_265600). The settings on record: Cricetinae; Compound concentration 10.0 uM.
Chain of ATP-sensitive inward rectifier potassium channel 11 (Cricetulus griseus) (A0A3L7HHE1 as listed by the source): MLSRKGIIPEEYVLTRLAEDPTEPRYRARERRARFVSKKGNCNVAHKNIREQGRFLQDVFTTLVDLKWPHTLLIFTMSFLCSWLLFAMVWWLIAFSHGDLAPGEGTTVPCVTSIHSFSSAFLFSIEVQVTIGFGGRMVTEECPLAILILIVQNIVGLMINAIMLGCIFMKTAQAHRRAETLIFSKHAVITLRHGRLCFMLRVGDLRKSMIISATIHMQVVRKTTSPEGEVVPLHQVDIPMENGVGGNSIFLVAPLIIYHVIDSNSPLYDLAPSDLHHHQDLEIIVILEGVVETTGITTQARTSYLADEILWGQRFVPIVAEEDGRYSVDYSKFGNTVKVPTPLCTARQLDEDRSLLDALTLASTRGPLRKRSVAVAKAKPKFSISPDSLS
Test [10] addresses T2, D(4) dopamine receptor (Homo sapiens) (UniProt P21917).
T2 sequence (whole entry): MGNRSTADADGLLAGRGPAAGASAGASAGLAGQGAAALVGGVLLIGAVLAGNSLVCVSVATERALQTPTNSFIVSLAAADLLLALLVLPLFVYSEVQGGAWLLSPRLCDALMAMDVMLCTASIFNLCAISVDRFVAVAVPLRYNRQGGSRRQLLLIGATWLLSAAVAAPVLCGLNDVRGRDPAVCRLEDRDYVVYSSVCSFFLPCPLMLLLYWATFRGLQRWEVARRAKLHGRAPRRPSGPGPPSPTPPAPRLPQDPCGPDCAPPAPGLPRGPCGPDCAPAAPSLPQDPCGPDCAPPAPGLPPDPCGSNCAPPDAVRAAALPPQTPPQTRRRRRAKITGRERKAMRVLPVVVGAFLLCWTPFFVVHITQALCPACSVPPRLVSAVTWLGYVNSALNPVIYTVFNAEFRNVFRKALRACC
Put plainly: Inhibition of Dopamine D4.2 at 10 µM in the Eurofins-Panlabs radioligand binding assay (Eurofins_assay_219900). Also noted: ligand concentration 0.5 nM. The note with it: Compound concentration 10.0 uM.

For the next test, the species on record is Oryctolagus cuniculus. Put plainly: Inhibition of Purinergic P2X at 10 µM in the Eurofins-Panlabs radioligand binding assay (Eurofins_assay_268700). Format: protein assay. The settings on record: Compound concentration 10.0 uM.
Test [11] addresses B2 bradykinin receptor (Homo sapiens) (UniProt P30411). Put plainly: Bradykinin B2 Eurofins-Panlabs radioligand binding assay. The settings on record: Compound concentration 10.0 uM.
Test [12] has as its target T3, 5-hydroxytryptamine receptor 1A (Homo sapiens) (UniProt P08908).
T3 sequence (whole entry): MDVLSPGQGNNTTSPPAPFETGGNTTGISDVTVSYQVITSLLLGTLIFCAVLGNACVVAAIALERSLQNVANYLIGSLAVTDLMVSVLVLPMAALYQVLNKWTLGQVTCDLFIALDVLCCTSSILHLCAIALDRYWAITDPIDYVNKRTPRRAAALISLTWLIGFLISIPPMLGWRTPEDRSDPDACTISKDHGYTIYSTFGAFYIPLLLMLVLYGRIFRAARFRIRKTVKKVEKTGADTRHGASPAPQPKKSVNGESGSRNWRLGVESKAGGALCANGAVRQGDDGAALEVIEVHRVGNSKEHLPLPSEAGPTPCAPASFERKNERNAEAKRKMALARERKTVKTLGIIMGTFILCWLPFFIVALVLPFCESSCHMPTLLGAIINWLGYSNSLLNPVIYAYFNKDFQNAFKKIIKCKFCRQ
The note with it: Compound concentration 10.0 uM.

For test [13], the target named is Histamine H2 receptor (Homo sapiens) (UniProt P25021). The settings on record: Compound concentration 10.0 uM.
Chain of Histamine H2 receptor (Homo sapiens) (P25021 whole entry): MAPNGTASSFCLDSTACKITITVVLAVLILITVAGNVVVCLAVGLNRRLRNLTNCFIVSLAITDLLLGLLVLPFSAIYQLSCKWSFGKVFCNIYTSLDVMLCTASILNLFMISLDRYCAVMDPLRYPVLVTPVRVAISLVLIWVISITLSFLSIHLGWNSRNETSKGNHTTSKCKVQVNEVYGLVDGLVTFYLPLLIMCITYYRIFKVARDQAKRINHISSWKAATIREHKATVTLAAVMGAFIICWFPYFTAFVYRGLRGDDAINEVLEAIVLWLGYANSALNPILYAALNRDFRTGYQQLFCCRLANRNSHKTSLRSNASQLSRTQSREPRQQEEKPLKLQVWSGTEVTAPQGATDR
Test [14] concerns the target GABA-A receptor; anion channel (Rattus norvegicus) (UniProt O09028+P15431+P18506+P18508+P19969+P20236+P23574+P23576+P28471+P28473+P30191+P62813+P63079+P63138+Q91ZM7+Q9ES14). The note with it: Compound concentration 10.0 uM.
Test [15] concerns the target T4, Muscarinic acetylcholine receptor M4 (Homo sapiens) (UniProt P08173).
T4 sequence (whole entry): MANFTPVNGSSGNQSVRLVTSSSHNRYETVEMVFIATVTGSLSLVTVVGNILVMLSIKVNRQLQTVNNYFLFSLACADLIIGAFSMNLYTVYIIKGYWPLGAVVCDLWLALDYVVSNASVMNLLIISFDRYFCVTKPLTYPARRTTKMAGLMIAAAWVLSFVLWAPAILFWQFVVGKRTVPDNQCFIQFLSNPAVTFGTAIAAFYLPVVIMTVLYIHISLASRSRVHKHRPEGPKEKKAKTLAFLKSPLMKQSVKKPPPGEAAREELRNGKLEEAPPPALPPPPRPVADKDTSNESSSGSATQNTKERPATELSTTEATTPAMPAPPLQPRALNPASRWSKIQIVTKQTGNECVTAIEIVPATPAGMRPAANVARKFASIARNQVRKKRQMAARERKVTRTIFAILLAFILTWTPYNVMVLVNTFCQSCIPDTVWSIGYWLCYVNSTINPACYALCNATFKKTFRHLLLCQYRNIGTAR
The settings on record: Compound concentration 10.0 uM.

For test [16], the target named is Kappa-type opioid receptor (Homo sapiens) (UniProt P41145). As to the kind of experiment: kappa (KOP) (h) Eurofins-Cerep Cellular and Nuclear Receptor Functional Assays. The settings on record: Compound concentration 10.0 uM.
Chain of Kappa-type opioid receptor (Homo sapiens) (P41145 whole entry): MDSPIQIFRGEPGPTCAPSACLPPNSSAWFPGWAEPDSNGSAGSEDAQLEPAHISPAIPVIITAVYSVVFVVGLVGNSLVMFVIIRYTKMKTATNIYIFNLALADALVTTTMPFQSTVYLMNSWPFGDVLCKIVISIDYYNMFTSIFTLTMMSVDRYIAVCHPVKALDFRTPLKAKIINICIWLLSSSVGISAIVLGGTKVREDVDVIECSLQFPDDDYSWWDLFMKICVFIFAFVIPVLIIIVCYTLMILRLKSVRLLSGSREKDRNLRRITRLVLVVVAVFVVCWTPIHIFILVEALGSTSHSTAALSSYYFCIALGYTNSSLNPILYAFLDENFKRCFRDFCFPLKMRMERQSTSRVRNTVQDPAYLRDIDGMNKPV
For test [17], the target named is Mu-type opioid receptor (Homo sapiens) (UniProt P35372). Put plainly: mu (MOP) (h) Eurofins-Cerep Cellular and Nuclear Receptor Functional Assays. The settings on record: Compound concentration 10.0 uM.

Structures are written as SMILES.

Chain of B2 bradykinin receptor (Homo sapiens) (P30411 whole entry): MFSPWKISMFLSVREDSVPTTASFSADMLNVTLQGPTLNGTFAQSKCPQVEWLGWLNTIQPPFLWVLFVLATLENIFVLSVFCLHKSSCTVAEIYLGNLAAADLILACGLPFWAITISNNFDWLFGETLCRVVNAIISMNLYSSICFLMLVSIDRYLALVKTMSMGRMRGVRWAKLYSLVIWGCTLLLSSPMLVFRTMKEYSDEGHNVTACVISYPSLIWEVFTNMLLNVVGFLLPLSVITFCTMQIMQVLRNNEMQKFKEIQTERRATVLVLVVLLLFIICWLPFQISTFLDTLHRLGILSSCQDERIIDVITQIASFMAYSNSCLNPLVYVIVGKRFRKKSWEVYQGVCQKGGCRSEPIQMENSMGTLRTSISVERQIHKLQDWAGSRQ
Chain of Cannabinoid receptor 1 (Homo sapiens) (P21554 whole entry): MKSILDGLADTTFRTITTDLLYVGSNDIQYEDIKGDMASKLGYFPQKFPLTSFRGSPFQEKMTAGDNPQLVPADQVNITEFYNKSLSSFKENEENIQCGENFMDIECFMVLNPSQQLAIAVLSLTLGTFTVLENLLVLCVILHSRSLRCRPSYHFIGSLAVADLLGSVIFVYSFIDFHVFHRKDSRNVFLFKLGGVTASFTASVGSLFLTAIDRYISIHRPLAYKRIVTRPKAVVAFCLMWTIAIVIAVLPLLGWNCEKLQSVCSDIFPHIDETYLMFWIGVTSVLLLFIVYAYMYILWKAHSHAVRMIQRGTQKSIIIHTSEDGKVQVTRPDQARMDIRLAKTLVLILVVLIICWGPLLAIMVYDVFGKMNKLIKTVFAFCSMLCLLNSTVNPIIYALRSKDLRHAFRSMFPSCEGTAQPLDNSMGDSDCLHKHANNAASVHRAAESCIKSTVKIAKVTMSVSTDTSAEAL
Chain of Beta-2 adrenergic receptor (Homo sapiens) (P07550 whole entry, looked up): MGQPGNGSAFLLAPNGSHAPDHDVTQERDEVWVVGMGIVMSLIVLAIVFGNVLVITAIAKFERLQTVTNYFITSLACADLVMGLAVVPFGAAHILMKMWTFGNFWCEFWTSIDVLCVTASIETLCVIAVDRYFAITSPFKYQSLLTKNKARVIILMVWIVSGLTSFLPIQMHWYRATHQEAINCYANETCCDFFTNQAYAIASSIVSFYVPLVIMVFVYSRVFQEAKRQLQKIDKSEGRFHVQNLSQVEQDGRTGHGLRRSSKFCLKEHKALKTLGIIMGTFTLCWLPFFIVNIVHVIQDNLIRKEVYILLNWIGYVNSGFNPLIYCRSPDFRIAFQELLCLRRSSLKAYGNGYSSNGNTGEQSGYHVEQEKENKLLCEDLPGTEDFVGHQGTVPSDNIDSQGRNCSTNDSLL
Chain of Sodium-dependent dopamine transporter (Homo sapiens) (Q01959 whole entry): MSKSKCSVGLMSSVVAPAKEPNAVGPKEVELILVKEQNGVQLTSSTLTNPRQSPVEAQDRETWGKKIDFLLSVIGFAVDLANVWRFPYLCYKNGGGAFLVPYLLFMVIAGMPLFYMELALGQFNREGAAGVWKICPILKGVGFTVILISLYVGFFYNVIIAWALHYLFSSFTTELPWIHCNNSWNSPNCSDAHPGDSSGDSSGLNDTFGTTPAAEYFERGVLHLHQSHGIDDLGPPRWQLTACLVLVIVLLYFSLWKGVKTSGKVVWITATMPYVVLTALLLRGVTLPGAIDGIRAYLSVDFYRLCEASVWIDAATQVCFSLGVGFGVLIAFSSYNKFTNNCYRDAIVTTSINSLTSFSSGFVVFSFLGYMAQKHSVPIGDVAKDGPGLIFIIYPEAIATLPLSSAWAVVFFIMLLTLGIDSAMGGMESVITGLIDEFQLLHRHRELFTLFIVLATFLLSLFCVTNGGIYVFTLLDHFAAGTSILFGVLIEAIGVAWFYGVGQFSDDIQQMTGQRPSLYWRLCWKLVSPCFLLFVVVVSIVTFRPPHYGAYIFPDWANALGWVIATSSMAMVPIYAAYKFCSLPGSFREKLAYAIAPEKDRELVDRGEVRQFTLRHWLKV

The term inhibition denotes the relative decrease from the control value, in per cent. Consider `O=C(N1CCS(=O)(=O)CC1)N1C[C@H](c2ccc(OC(F)(F)F)cc2)C[C@H](c2nc(C3CC3)no2)C1` [BAY-386], for which the inhibition in test [1] was 10%; in test [2], 88%; in [3], 1%; in [4], -4%; in test [5], 0%; in [6], -3%. For the same compound, the inhibition was -6% in test [7]; 4% in test [9]; -9% in test [10]; 9% in the test listed under Oryctolagus cuniculus; 11% in test [11]; -9% in test [12]. Moreover, the inhibition in [13] is 9.25%; in [14], -3%. Moreover, in test [8], the % Inhibition of Control Agonist Response (Mean n=2) is 3.7%. The compound further displayed a % of Control Agonist Response (Mean n=2) in [8] of 1%.

Turning to `Cc1noc([C@H]2C[C@@H](c3ccc(C(F)(F)F)cc3)CN(C(=O)N3CCS(=O)(=O)C3)C2)n1` [BAY-448], the inhibition in test [15] was -0.58%. In test [16], the % Inhibition of Control Agonist Response (Mean n=2) is 1.3% and the % of Control Agonist Response (Mean n=2) was 9%. Besides, in test [17], the % Inhibition of Control Agonist Response (Mean n=2) was -4.8% and the % of Control Agonist Response (Mean n=2) worked out at 36%.
